Like-named read-outs stand apart in the source and are kept apart here.
Tests used:
yeast-like fungi = test: MIC / MFC for yeast-like fungi, all strains; assay type: cell-based, Candida, Cryptococcus, Saccharomyces, Torulopsis; conditions: read-out: Mean MIC values
Description: (§1) The following strains were used (the number of strains is in brackets): Candida (13); Criptococcus (2); Saccharormyces (1); Torulopsis (1).
(§2) Yeast Nitrogen Base supplemented with 0.15% asparagine and 1.0% glucose (as carbon source) was the medium utilized in the assays.
(§3) This medium was buffered with 0.165 M 2-(N-morpholino) propane sulfonic acid (MOPS), a non-chelating buffer. […]
(§4) The inoculum was prepared from an overnight broth culture (a 48-hour culture only for Cryptococcus) in Sabouraud broth and appropriately diluted to yield a final suspension containing approximately 5.0×10^6 Colony Forming Units per ml (CFU/ml), when compared to the Mc Farland's standard control (BRAY W. E., Clinical Laboratory Methods, 5th Ed. C. V. MOSBY, St. Louis, Mo, 1957).
(§5) After further diluting (1:50), a […] volume of such fungal suspensions and an equal volume of the substance solutions were distributed into each well of a microtiter plate (96 wells, round bottom). Such a procedure eventually allowed for an "in vitro" antimycotic activity assay utilizing final fungal inocula of approximately 5.0×10^4 CFU/ml.
(§6) The minimal fungicidal concentration was evaluated by spot-transferring onto Petri dishes, containing Sabouraud agar, 0.01-ml volumes of all the samples showing no visible fungal growth.

Penicillium sp. (1302) = test: MIC for filamentous fungi; assay type: cell-based; conditions: read-out: Minimal Inhibitory Concentration (MIC)
Source text: (§7) The following strains were used (the number of strains is in brackets): Aspergillus (5); Fusarium (1); Mucor (1); Penicillium (1).
(§8) The tested substances were: ST 712, ST 722, ST 982, ST 983, ST 1000, ST 1001, ST 1032, ST 1033, ST 1034, ST 1036, ST 1037, ST 1038, ST 1050, ST 1051, ST 1052, ST 1053. The assay medium was the same as the one used in the previous study. The conidia from 72-hour cultures in Sabouraud agar, collected by washing with Sabouraud medium and Tween 80 (one drop of Tween per 10 ml of medium), were utilized as inoculum (5.0×10^4 CFU/ml).
(§9) The assay was performed using the same procedure as described for yeast-like fungi.
(§10) Also the evaluation of MIC and MFC was as reported previously.

[1] = system: Aspergillus fumigatus (ATCC 28212); test: MIC for filamentous fungi; assay type: cell-based; conditions: ATCC28212, read-out: Minimal Inhibitory Concentration (MIC)
Source text: as §7, §8, §9, §10

Mucor mucedo (ATCC 7941) = test: MIC for filamentous fungi; assay type: cell-based; conditions: ATCC7941, read-out: Minimal Inhibitory Concentration (MIC)
Source text: as §7, §8, §9, §10

Fusarium sp. (ISS 1) = test: MIC for filamentous fungi; assay type: cell-based; conditions: read-out: Minimal Inhibitory Concentration (MIC)
Source text: as §7, §8, §9, §10

[2] = system: Aspergillus niger (ATCC 16404); test: MIC for filamentous fungi; assay type: cell-based; conditions: ATCC16404, read-out: Minimal Inhibitory Concentration (MIC)
Source text: as §7, §8, §9, §10

Candida albicans (Ca 2) = test: MIC for yeast and yeast-like strains; assay type: cell-based; conditions: 48 hours, 35° C., read-out: Minimal Inhibitory Concentration (MIC)
Description: as §1, §2, §3, §4, §5

[3] = system: Torulopsis candida (D.S.); test: MIC for yeast and yeast-like strains; assay type: cell-based; conditions: Suzukiozyma candida; 48 hours, 35° C.; read-out: Minimal Inhibitory Concentration (MIC)
Description: as §1, §2, §3, §4, §5

[4] = system: Cryptococcus neoformans (4711); test: MIC for yeast and yeast-like strains; assay type: cell-based; conditions: 48 hours, 35° C., read-out: Minimal Inhibitory Concentration (MIC)
Description: as §1, §2, §3, §4, §5

[5] = system: Candida tropicalis (5705); test: MIC for yeast and yeast-like strains; assay type: cell-based; conditions: 48 hours, 35° C., read-out: Minimal Inhibitory Concentration (MIC)
Description: as §1, §2, §3, §4, §5

Candida albicans (A 54) = test: MIC for yeast and yeast-like strains; assay type: cell-based; conditions: 48 hours, 35° C., read-out: Minimal Inhibitory Concentration (MIC)
Description: as §1, §2, §3, §4, §5

filamentous fungi = test: MIC / MFC for filamentous fungi, all strains; assay type: cell-based, Aspergillus, Fusarium, Mucor, Penicillium; conditions: read-out: Mean MIC values
Source text: as §7, §8, §9, §10

Candida glabrata (ISS 1) = test: MIC for yeast and yeast-like strains; assay type: cell-based; conditions: Nakaseomyces glabratus; 48 hours, 35° C.; read-out: Minimal Inhibitory Concentration (MIC)
Description: as §1, §2
(§11) This medium was buffered with 0.165 M 2-(N-morpholino) propane sulfonic acid (MOPS), a non-chelating buffer.
(§12) Antimicrob. Agents Cheroother. Aug. 34.8:1542-1545).
as §4, §5

[6] = system: Candida tropicalis (ISS 1); test: MIC for yeast and yeast-like strains; assay type: cell-based; conditions: 48 hours, 35° C., read-out: Minimal Inhibitory Concentration (MIC)
Description: as §1, §2, §11, §12, §4, §5

[7] = system: Candida parapsilosis (ISS 1); test: MIC for yeast and yeast-like strains; assay type: cell-based; conditions: Lodderomyces parapsilosis; 48 hours, 35° C.; read-out: Minimal Inhibitory Concentration (MIC)
Description: as §1, §2, §11, §12, §4, §5

[8] = system: Candida guilliermondii (ISS 1); test: MIC for yeast and yeast-like strains; assay type: cell-based; conditions: Meyerozyma guilliermondii; 48 hours, 35° C.; read-out: Minimal Inhibitory Concentration (MIC)
Description: as §1, §2, §11, §12, §4, §5

Candida albicans (ISS 1) = test: MIC for yeast and yeast-like strains; assay type: cell-based; conditions: 48 hours, 35° C., read-out: Minimal Inhibitory Concentration (MIC)
Description: as §1, §2, §11, §12, §4, §5

Candida krusei (ISS 1) = test: MIC for yeast and yeast-like strains; assay type: cell-based; conditions: Pichia kudriavzevii; 48 hours, 35° C.; read-out: Minimal Inhibitory Concentration (MIC)
Description: as §1, §2, §3, §4, §5

Candida albicans (PG) = test: MIC and MFC for yeast and yeast-like strains; assay type: cell-based; conditions: 48 hours, 35° C., read-out: Minimal Inhibitory Concentration (MIC)
Description: as §1, §2, §11, §12, §4, §5, §6

[9] = system: Aspergillus fumigatus (1/A); test: MIC for filamentous fungi; assay type: cell-based; conditions: read-out: Minimal Inhibitory Concentration (MIC)
Source text: as §7, §8, §9, §10

[10] = system: Aspergillus fumigatus (C/1); test: MIC for filamentous fungi; assay type: cell-based; conditions: read-out: Minimal Inhibitory Concentration (MIC)
Source text: as §7, §8, §9, §10

[11] = system: Aspergillus fumigatus (2/A); test: MIC for filamentous fungi; assay type: cell-based; conditions: read-out: Minimal Inhibitory Concentration (MIC)
Source text: as §7, §8, §9, §10

[12] = system: Candida albicans (ATCC 2091); test: MIC for yeast and yeast-like strains; assay type: cell-based; conditions: ATCC2091, 48 hours, 35° C., read-out: Minimal Inhibitory Concentration (MIC)
Description: as §1, §2, §11, §12, §4, §5

[13] = system: Candida pseudotropicalis (EC 1); test: MIC for yeast and yeast-like strains; assay type: cell-based; conditions: Kluyveromyces marxianus; 48 hours, 35° C.; read-out: Minimal Inhibitory Concentration (MIC)
Description: as §1, §2, §11, §12, §4, §5

[14] = system: Cryptococcus neoformans (ISS 1); test: MIC for yeast and yeast-like strains; assay type: cell-based; conditions: 48 hours, 35° C., read-out: Minimal Inhibitory Concentration (MIC)
Description: as §1, §2, §11, §12, §4, §5

Candida albicans (562) = test: MIC for yeast and yeast-like strains; assay type: cell-based; conditions: 48 hours, 35° C., read-out: Minimal Inhibitory Concentration (MIC)
Description: as §1, §2, §3, §4, §5

[15] = system: Saccharomyces cerevisiae (ATCC 7752); test: MIC for yeast and yeast-like strains; assay type: cell-based; conditions: ATCC7752, 48 hours, 35° C., read-out: Minimal Inhibitory Concentration (MIC)
Description: as §1, §2, §3, §4, §5

| Structure (SMILES) | MIC (Penicillium sp. (1302)) | MIC [1] | MIC (Mucor mucedo (ATCC 7941)) | MIC (Fusarium sp. (ISS 1)) | MIC [2] | MIC (Candida albicans (Ca 2)) | MIC [3] | MIC [4] | MIC [5] | MIC (Candida albicans (A 54)) | MIC (yeast-like fungi; versus susceptible strains) | MIC (filamentous fungi; versus susceptible strains) | MIC (Candida glabrata (ISS 1)) | MIC [6] | MIC [7] | MIC [8] | MIC (Candida albicans (ISS 1)) | MIC (Candida krusei (ISS 1)) | other results |
| --- | --- | --- | --- | --- | --- | --- | --- | --- | --- | --- | --- | --- | --- | --- | --- | --- | --- | --- | --- |
| CCCCCCCCCCCOC(=O)C[C@H](C[N+](C)(C)C)OC(=O)CCCCCCCCCC [ST 982] | > 100 µg/mL | > 100 µg/mL | > 100 µg/mL | > 100 µg/mL | > 100 µg/mL | > 100 µg/mL | > 100 µg/mL | > 100 µg/mL | > 100 µg/mL | > 100 µg/mL |  |  |  |  |  |  |  |  | MIC (yeast-like fungi): > 100 µg/mL; MIC (filamentous fungi): > 100 µg/mL |
| CCCCCCCCCCCCCCCC(=O)O[C@H](CC(=O)OCCCCCCCCCCC)C[N+](C)(C)C [ST 983] | > 100 µg/mL | > 100 µg/mL | > 100 µg/mL | > 100 µg/mL | > 100 µg/mL | > 100 µg/mL | > 100 µg/mL | > 100 µg/mL | > 100 µg/mL | > 100 µg/mL | > 100 µg/mL | > 100 µg/mL |  |  |  |  |  |  |  |
| CCCCCCCCCCCOC(=O)C[C@H](C[N+](C)(C)C)OC(=O)CCCCCCC [ST 1000] | 3.12 µg/mL | 3.12 µg/mL | 6.25 µg/mL | 3.12 µg/mL | 3.12 µg/mL | 1.56 µg/mL | 6.25 µg/mL | 1.56 µg/mL |  | 6.25 µg/mL | 4.21 µg/mL | 3.76 µg/mL | 6.25 µg/mL | 3.12 µg/mL | 6.25 µg/mL | 6.25 µg/mL | 3.12 µg/mL | 1.56 µg/mL |  |
| CCCCCCCCCCCCCCCCOC(=O)C[C@H](C[N+](C)(C)C)OC(=O)CC(C)C [ST 1001] | 6.25 µg/mL | 6.25 µg/mL | > 100 µg/mL | 12.5 µg/mL | 12.5 µg/mL | 3.12 µg/mL | 6.25 µg/mL | 1.56 µg/mL | 6.25 µg/mL | 3.12 µg/mL | 6.24 µg/mL | 7.03 µg/mL | 6.25 µg/mL | 12.5 µg/mL | 6.25 µg/mL | 6.25 µg/mL | 12.5 µg/mL | 6.25 µg/mL | MIC (Candida albicans (PG)): 6.25 µg/mL; MIC [9]: 6.25 µg/mL; MIC [10]: 6.25 µg/mL; MIC [11]: 6.25 µg/mL; MIC [12]: 6.25 µg/mL; MIC [13]: 12.5 µg/mL; MIC [14]: 3.12 µg/mL; MIC (Candida albicans (562)): 3.12 µg/mL; MIC [15]: 6.25 µg/mL |

From US5525627A, “Esters of acyl carnitines with long-chain aliphatic alcohols and pharmaceutical compositions containing same having antimycotic activity” (Sigma-Tau Industrie Farmaceutiche Riunite S.p.A., priority 1992, dated 1996)
